# Results from patent EP1044015B1, “FORMULATIONS FOR AMYLIN AGONIST PEPTIDES WITH INSULIN” (AMYLIN PHARMACEUTICALS, INC., priority 1998, dated 2008).
# Experiment: Adsorption onto glass container
# Type: physicochemical
# Conditions: liquid form
# Text: However, with regard to amylin agonists or amylins which do have such a tendency, a surfactant should be used in their formulation which formulations should then be lyophilized. Surfactants frequently cause denaturation of protein, both of hydrophobic disruption and by salt bridge separation. Relatively low concentrations of surfactant exert a potent denaturing activity, because of the strong interactions between surfactant moieties and the reactive sites on proteins. However, judicious use of this interaction can stabilize proteins against interfacial or surface denaturation. Surfactants which could further stabilize the peptide may optionally be present in the range of about 0.001 to 0.3% (w/v) of the total formulation and include polysorbate 80 (i.e., polyoxyethylene(20) sorbitan monooleate), CHAPS° (i.e., 3-[(3-cholamidopropyl) dimethylammonio] 1-propanesulfonate), Brij° (e.g., Brij 35, which is (polyoxyethylene (23) lauryl ether), poloxamer, or another non-ionic surfactant.
substance,measurement,value
"^25,28,29Pro-h- amylin [Pramlintide]",tendency to adsorb onto the glass,does not have a tendency to adsorb onto the glass
